Reference: ChEMBL document CHEMBL3351349, “Histone deacetylase inhibitors derived from 1,2,3,4-tetrahydropyrrolo[1,2-a]pyrazine and related heterocycles selective for the HDAC6 isoform” (Bioorg Med Chem Lett, 2014)

Legend:
Histone deacetylase 4 = Histone deacetylase 4 (Homo sapiens, UniProt P56524)
Histone deacetylase 1 = Histone deacetylase 1 (Homo sapiens, UniProt Q13547); test: Inhibition of full length GST-tagged human HDAC1 using Arg-His-Lys-Lys(Ac) substrate incubated for 2 hrs by fluorescence assay
Chain of Histone deacetylase 1 (Q13547 whole entry): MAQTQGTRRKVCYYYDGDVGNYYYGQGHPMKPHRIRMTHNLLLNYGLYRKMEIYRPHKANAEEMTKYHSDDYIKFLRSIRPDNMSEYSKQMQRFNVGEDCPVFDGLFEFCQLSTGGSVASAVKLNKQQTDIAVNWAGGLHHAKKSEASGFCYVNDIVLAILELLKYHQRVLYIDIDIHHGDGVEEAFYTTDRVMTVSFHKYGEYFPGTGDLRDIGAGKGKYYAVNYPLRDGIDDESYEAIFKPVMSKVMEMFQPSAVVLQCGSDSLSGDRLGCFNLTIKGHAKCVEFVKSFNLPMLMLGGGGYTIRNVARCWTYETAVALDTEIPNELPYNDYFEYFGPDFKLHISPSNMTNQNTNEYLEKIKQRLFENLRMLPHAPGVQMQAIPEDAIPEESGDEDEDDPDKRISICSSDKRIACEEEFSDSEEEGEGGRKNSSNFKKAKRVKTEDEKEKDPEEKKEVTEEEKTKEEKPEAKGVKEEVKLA

Histone deacetylase 3 = Histone deacetylase 3 (Homo sapiens, UniProt O15379); test: Inhibition of full length C-terminal 6x-His tagged human HDAC3 using Arg-His-Lys-Lys(Ac) substrate incubated for 2 hrs by fluorescence assay
Chain of Histone deacetylase 3 (O15379 whole entry): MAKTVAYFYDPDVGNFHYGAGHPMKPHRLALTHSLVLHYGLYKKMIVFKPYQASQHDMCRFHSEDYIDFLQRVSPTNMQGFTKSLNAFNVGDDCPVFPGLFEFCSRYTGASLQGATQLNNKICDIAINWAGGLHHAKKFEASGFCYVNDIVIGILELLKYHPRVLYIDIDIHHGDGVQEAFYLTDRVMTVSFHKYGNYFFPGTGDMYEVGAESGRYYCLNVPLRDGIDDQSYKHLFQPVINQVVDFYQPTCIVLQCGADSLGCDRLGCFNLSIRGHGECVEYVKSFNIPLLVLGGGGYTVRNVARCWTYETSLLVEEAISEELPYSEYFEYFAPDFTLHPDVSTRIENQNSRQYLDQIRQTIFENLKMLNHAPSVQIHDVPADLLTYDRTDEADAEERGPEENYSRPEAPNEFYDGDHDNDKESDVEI

[1] = molecular target: Histone deacetylase (HDAC1 and HDAC2) (Homo sapiens) (UniProt Q13547+Q92769); test: Inhibition of HDAC1/HDAC2 in human HeLa cells assessed as reduction in acetylated histone levels at 20 uM incubated for 24 hrs by immunofluorescence assay; format: cell-based
Chain of Histone deacetylase (HDAC1 and HDAC2) (Homo sapiens) (Q13547 whole entry, looked up, the tested form may be a part): as the sequence (Q13547 whole entry) above
Chain of Histone deacetylase (HDAC1 and HDAC2) (Homo sapiens) (Q92769 whole entry, looked up, the tested form may be a part): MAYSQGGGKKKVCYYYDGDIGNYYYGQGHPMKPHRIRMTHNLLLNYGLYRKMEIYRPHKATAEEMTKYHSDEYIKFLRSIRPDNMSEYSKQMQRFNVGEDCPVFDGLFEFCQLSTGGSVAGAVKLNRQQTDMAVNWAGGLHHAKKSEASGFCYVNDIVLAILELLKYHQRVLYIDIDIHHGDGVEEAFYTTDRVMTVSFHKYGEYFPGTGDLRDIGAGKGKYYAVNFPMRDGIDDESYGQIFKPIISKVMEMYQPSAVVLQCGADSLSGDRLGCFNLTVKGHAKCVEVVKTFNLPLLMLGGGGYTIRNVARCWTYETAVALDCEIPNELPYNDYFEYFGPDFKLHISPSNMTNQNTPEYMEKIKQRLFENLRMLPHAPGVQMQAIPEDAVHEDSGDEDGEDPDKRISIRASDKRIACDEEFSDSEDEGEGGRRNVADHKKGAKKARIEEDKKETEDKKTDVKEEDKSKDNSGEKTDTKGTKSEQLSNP

[2] = molecular target: T1, Polyamine deacetylase HDAC10 (Homo sapiens, UniProt Q969S8); test: Inhibition of N-terminal GST-tagged human HDAC10 (1 to 481 residues) using Arg-His-Lys-Lys(Ac) substrate incubated for 2 hrs by fluorescence assay
T1 sequence (Q969S8 whole entry): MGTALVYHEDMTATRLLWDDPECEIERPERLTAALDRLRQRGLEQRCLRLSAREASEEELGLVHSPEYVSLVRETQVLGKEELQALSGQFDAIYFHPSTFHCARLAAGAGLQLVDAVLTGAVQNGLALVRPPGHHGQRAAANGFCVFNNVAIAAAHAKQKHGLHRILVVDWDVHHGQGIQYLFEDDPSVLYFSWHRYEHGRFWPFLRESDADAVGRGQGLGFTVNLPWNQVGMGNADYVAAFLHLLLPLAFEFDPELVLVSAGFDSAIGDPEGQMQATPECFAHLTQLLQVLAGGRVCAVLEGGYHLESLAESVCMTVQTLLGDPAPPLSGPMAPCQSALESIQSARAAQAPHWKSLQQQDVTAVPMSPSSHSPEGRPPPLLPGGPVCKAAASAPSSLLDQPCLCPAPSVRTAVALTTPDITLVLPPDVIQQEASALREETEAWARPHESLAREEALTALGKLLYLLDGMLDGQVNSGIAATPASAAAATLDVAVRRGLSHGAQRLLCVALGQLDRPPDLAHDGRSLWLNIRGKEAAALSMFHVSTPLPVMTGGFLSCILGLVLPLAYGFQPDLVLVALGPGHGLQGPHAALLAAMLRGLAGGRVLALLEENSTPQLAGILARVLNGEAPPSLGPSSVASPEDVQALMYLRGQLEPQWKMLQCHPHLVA

[3] = Permeability in human Caco2 cells at pH 7.4; format: ADME, cell-based; details: Caco-2, pH 7.4, read-out: permeability
Histone deacetylase 5 = Histone deacetylase 5 (Homo sapiens, UniProt Q9UQL6)
Chain of Histone deacetylase 5 (Q9UQL6 whole entry): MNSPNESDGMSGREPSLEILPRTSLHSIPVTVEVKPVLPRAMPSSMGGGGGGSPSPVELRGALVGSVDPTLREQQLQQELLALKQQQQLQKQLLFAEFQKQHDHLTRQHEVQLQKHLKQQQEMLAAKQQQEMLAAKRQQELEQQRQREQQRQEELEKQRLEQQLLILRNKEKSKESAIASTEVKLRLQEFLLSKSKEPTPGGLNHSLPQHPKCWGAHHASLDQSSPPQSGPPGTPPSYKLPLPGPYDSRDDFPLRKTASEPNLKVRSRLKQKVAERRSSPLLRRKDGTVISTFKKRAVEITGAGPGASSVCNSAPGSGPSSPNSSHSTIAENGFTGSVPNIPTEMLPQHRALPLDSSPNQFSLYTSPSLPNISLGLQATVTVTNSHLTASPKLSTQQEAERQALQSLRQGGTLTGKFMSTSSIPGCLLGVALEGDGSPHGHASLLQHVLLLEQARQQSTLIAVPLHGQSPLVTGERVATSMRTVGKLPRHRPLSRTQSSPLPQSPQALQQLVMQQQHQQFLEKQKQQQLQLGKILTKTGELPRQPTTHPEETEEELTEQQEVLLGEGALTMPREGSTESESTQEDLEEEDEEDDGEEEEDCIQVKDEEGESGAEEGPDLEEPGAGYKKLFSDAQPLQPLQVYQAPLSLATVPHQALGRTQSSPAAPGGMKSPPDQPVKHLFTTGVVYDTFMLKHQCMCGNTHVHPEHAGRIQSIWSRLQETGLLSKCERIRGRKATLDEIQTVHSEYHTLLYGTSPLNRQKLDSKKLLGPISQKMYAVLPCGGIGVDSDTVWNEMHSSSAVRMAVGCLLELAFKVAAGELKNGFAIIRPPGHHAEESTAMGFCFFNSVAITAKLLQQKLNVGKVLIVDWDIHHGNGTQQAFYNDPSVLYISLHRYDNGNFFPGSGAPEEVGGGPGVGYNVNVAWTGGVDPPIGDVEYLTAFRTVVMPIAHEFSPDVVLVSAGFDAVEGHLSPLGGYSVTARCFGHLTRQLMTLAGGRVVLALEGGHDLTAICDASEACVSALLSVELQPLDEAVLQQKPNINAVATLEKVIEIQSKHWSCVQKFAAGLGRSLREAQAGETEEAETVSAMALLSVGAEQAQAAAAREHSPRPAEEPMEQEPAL

[4] = Aqueous solubility in pH 6.8 buffer solution; format: physicochemical
Histone deacetylase 8 = molecular target: T2, Histone deacetylase 8 (Homo sapiens, UniProt Q9BY41); test: Inhibition of full length C-terminal 6x-His tagged human HDAC8 using Arg-His-Lys(Ac)-Lys(Ac) substrate incubated for 2 hrs by fluorescence assay
T2 sequence (Q9BY41 whole entry): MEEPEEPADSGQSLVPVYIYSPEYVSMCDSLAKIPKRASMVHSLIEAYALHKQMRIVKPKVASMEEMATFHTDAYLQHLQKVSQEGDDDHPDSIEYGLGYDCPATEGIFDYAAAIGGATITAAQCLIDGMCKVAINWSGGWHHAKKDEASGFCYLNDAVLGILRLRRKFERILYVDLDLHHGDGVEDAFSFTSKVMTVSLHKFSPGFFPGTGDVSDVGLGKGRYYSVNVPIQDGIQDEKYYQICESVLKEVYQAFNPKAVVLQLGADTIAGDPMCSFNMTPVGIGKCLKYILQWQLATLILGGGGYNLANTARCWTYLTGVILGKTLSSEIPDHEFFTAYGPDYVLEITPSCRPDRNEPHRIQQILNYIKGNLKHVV

Histone deacetylase 2 = Histone deacetylase 2 (Homo sapiens, UniProt Q92769)
Chain of Histone deacetylase 2 (Q92769 whole entry): as the sequence (Q92769 whole entry, looked up, the tested form may be a part) above

[5] = molecular target: T3, Protein deacetylase HDAC6 (Homo sapiens, UniProt Q9UBN7); test: Inhibition of recombinant N-GST-tagged HDAC6 (unknown origin) assessed as reduction in deacetylation of Ac-Arg-Gly-Lys(Ac)-AMC substrate by fluorescence assay
T3 sequence (Q9UBN7 whole entry): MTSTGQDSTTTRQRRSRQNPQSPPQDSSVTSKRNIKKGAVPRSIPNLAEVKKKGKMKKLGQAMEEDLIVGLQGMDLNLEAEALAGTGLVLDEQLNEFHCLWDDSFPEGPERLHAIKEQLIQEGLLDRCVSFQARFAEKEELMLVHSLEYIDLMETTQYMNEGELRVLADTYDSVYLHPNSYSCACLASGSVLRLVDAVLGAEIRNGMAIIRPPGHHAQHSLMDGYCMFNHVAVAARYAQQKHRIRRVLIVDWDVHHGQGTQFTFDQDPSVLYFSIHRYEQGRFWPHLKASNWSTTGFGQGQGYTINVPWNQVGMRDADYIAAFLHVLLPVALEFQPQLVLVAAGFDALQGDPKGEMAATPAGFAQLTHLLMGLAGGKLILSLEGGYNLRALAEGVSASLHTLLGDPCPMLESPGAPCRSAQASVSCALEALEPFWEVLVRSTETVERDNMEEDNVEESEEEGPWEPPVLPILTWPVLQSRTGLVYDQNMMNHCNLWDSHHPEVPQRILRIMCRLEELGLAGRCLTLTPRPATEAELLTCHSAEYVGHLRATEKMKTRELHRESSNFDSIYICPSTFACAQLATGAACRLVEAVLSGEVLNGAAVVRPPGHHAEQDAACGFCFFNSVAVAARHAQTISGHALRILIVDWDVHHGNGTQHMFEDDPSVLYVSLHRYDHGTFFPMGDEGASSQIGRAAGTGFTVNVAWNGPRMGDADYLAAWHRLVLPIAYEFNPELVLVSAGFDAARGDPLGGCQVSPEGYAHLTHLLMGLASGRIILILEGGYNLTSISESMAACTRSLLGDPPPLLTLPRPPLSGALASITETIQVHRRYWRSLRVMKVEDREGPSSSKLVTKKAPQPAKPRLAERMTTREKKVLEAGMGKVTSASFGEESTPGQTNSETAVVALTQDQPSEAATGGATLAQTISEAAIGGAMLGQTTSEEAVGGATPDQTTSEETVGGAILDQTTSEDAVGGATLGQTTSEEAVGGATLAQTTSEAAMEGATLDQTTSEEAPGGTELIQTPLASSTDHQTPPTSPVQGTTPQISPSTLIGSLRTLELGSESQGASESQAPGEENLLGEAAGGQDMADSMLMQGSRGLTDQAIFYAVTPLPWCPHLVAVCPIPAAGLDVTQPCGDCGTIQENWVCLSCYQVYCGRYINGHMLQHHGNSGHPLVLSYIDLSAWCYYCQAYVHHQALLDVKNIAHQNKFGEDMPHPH

Histone deacetylase 11 = molecular target: T4, Histone deacetylase 11 (Homo sapiens, UniProt Q96DB2); test: Inhibition of full length N-terminal GST-tagged human HDAC11 using Arg-His-Lys-Lys(Ac) substrate incubated for 2 hrs by fluorescence assay
T4 sequence (Q96DB2 whole entry): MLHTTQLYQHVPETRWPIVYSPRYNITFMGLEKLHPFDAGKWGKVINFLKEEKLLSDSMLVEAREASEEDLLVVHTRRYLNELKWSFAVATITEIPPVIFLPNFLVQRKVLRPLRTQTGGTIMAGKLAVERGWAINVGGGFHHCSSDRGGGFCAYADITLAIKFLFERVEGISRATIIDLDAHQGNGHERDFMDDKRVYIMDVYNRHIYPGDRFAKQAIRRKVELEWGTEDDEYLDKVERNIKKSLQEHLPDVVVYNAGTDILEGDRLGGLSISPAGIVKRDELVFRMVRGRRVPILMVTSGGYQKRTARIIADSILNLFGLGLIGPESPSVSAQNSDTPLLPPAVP

[6] = molecular target: T3, Protein deacetylase HDAC6; test: Inhibition of HDAC6 in human HeLa cells assessed as reduction in K40 hyperacetylation of alpha-tubulin incubated for 6 hrs by immunofluorescence assay; format: cell-based
HeLa = test: Selectivity index, ratio of IC50 for HDAC1/HDAC2 in human HeLa cells nuclear extracts to IC50 for recombinant N-GST-tagged HDAC6 (unknown origin); format: cell-based

Chain of Histone deacetylase 4 (P56524 whole entry): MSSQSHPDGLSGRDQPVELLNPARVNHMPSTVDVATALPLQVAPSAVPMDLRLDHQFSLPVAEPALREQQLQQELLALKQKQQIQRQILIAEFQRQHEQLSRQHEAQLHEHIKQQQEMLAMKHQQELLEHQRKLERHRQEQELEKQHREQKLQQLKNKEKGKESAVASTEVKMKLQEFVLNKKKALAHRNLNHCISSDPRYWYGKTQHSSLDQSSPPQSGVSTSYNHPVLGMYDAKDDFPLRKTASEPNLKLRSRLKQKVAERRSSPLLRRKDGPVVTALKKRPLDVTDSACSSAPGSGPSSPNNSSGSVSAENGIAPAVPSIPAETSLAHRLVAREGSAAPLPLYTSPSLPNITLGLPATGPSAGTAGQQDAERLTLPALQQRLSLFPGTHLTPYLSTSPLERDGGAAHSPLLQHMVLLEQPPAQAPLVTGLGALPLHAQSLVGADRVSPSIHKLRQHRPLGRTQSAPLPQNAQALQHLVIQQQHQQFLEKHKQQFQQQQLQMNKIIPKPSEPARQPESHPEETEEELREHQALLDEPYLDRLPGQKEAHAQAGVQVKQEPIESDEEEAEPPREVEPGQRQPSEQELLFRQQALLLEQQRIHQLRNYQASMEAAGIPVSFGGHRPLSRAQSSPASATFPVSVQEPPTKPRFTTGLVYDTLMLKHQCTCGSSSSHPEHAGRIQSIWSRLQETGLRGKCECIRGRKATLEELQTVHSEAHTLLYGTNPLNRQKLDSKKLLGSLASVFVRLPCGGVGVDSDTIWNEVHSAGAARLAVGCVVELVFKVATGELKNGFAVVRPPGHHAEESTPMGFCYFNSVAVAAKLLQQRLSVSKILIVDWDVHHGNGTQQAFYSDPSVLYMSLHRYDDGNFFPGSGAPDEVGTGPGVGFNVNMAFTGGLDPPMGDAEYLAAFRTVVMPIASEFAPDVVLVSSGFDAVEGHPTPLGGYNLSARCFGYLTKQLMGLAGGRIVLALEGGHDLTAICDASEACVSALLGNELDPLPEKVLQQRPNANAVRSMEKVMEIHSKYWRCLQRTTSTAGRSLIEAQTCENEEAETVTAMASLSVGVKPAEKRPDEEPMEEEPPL

Question: Which IC50 (Histone deacetylase 4) does the source give for `Cn1cccc1C(=O)N1CCn2cc(C(=O)NO)cc2C1` here?
Answer: > 50000 nM

Question: What about the IC50 (Histone deacetylase 1) of the same compound?
Answer: 15000 nM

Question: What about the IC50 (Histone deacetylase 3) of the same compound?
Answer: 8500 nM

Question: And the inhibition [1]?
Answer: < 20%

Question: What about the IC50 [2] of the same compound?
Answer: 41000 nM

Question: What about the Papp [3] of the same compound?
Answer: 4.2 ×10⁻⁶ cm/s

Question: What about the IC50 (Histone deacetylase 5) of the same compound?
Answer: 29000 nM

Question: What about the solubility [4] of the same compound?
Answer: > 200 µM

Question: What about the IC50 (Histone deacetylase 8) of the same compound?
Answer: 3300 nM

Question: What about the IC50 (Histone deacetylase 2) of the same compound?
Answer: 39000 nM

Question: What about the IC50 [5] of the same compound?
Answer: 33 nM

Question: What about the IC50 (Histone deacetylase 11) of the same compound?
Answer: 29000 nM

Question: And the IC50 [6]?
Answer: 69 nM

Question: What does the source list for `Cn1c(C(=O)N2CCn3cc(C(=O)NO)cc3C2)cc(Cl)c1Cl`?
Answer: inhibition [1]: < 20%; Ratio IC50 (HeLa): 100; IC50 [5]: 33 nM; IC50 [6]: 150 nM

Question: With `O=C(NO)c1cc2n(c1)CCN(C(=O)c1cc3ccccc3s1)C2` as the compound, how does the inhibition [1] read?
Answer: < 20%

Question: What about the Ratio IC50 (HeLa) of the same compound?
Answer: 14

Question: And the IC50 [5]?
Answer: 39 nM

Question: Which results are given for `O=C(NO)c1cc2n(c1)CCN(C(=O)C1CCCCC1)C2`?
Answer: inhibition [1]: < 20%; Ratio IC50 (HeLa): 250; IC50 [5]: 100 nM; IC50 [6]: 730 nM

Question: What does the source list for `Cn1cccc1C(=O)NCc1ccc(C(=O)NO)cc1`?
Answer: inhibition [1]: < 20%; Ratio IC50 (HeLa): 115

Question: For `Cn1cccc1C(=O)N1CCn2nc(C(=O)NO)cc2C1`, which inhibition [1] is on record?
Answer: < 20%

Question: What about the Ratio IC50 (HeLa) of the same compound?
Answer: 220

Question: What about the IC50 [5] of the same compound?
Answer: 350 nM

Question: And the IC50 [6]?
Answer: 2200 nM

Question: With `Cn1ccc2cc(C(=O)N3CCn4cc(C(=O)NO)cc4C3)ccc21` as the compound, how does the inhibition [1] read?
Answer: < 20%

Question: What about the Ratio IC50 (HeLa) of the same compound?
Answer: 35

Question: What about the IC50 [5] of the same compound?
Answer: 85 nM

Question: What about the IC50 [6] of the same compound?
Answer: 140 nM

Question: What does the source list for `Cn1cccc1C(=O)N1CCn2cc(C(=O)NO)nc2C1`?
Answer: inhibition [1]: < 20%; Ratio IC50 (HeLa): 770; IC50 [5]: 130 nM

Question: What does the source list for `O=C(NO)c1cc2n(c1)CCN(C(=O)c1cc3ccccc3[nH]1)C2`?
Answer: inhibition [1]: < 20%; Ratio IC50 (HeLa): 24; IC50 [5]: 280 nM

Question: Which inhibition [1] does the source give for `COc1ccc(C(=O)N2CCn3cc(C(=O)NO)cc3C2)cc1` here?
Answer: < 20%

Question: And the Ratio IC50 (HeLa)?
Answer: 130

Question: And the IC50 [5]?
Answer: 43 nM

Question: What about the IC50 [6] of the same compound?
Answer: 100 nM

Question: What does the source list for `O=C(NO)c1cc2n(c1)CCN(C(=O)c1cccs1)C2`?
Answer: inhibition [1]: < 20%; Ratio IC50 (HeLa): 150; IC50 [5]: 110 nM

Question: Which results are given for `Cn1c(C(=O)N2CCn3nc(C(=O)NO)cc3C2)cc2ccccc21`?
Answer: inhibition [1]: < 20%; Ratio IC50 (HeLa): 66; IC50 [5]: 76 nM; IC50 [6]: 3500 nM

Question: For `COc1ccc(C(=O)N2CCn3nc(C(=O)NO)cc3C2)cc1`, which inhibition [1] is on record?
Answer: < 20%

Question: And the Ratio IC50 (HeLa)?
Answer: 120

Question: And the IC50 [5]?
Answer: 810 nM

Question: For `O=C(NO)c1cn2c(n1)CN(C(=O)c1ccc(-c3ccccc3)cc1)CC2`, which inhibition [1] is on record?
Answer: < 20%

Question: And the Ratio IC50 (HeLa)?
Answer: 70

Question: What about the IC50 [5] of the same compound?
Answer: 87 nM

Question: And the IC50 [6]?
Answer: 2100 nM

Question: For `Cn1cccc1C(=O)N1CCc2cc(C(=O)NO)ccc2C1`, which inhibition [1] is on record?
Answer: < 20%

Question: And the Ratio IC50 (HeLa)?
Answer: 500

Question: With `O=C(NO)c1cc2n(c1)CCN(C(=O)c1ccc(-c3ccccc3)cc1)C2` as the compound, how does the inhibition [1] read?
Answer: < 20%

Question: What about the Ratio IC50 (HeLa) of the same compound?
Answer: 44

Question: And the IC50 [5]?
Answer: 32 nM

Question: With `Cn1cc(C(=O)N2CCn3cc(C(=O)NO)cc3C2)c2ccccc21` as the compound, how does the inhibition [1] read?
Answer: < 20%

Question: And the Ratio IC50 (HeLa)?
Answer: 6.3

Question: What about the IC50 [5] of the same compound?
Answer: 190 nM

Question: What does the source list for `O=C(NO)c1cn2c(n1)CN(C(=O)c1cc3ccccc3s1)CC2`?
Answer: inhibition [1]: < 20%; Ratio IC50 (HeLa): 52; IC50 [5]: 64 nM
